Test results taken from PMC10762035, “Molecular basis of human trace amine-associated receptor 1 activation” (Nature Communications, 2024).
Positions count from the first letter of the chain named. “And” between values parts separate entries of the source, which are not always exact repeats. Equal entries are not always repeated. Where two headings read alike, the source gives them in different places.

How the values were obtained:
Format in all cases: cell-based
hTA1 C13S = biological target: T1, hTA1 C13S (Homo sapiens, UniProt Q96RJ0, C13S); experiment: GloSensor cAMP accumulation assay, C13S mutant
T1 construct: expressed in transfected cells; host or cells: HEK293T
T1 sequence (Q96RJ0 1-339 C13S): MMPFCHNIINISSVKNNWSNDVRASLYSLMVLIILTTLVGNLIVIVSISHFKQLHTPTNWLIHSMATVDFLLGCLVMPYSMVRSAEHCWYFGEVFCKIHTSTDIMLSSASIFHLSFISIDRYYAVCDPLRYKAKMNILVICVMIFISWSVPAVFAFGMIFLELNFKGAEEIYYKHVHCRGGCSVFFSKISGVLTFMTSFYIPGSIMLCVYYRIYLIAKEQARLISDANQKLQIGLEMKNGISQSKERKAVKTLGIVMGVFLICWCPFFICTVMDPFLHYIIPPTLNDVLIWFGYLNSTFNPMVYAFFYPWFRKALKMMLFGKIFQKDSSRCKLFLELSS

hTA1 I290N = biological target: T2, hTA1 I290N (Homo sapiens, UniProt Q96RJ0, I290N); experiment: GloSensor cAMP accumulation assay, I290N mutant;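 note: cells transiently co-expressing hTA1 and the GloSensor cAMP biosensor, luminescence read 30 min after compound addition at room temperature, efficacy scaled to the maximal β-PEA response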
T2 construct: expressed in transfected cells; host or cells: HEK293T
T2 sequence (Q96RJ0 1-339 I290N): T1 sequence (Q96RJ0 1-339 C13S) with S13C, I290N

[1] = biological target: T3, β2AR-Nterm-hTA1-F112^3.41W (CryoEM Construct) (Homo sapiens, UniProt Q96RJ0, F112W); experiment: GloSensor cAMP accumulation assay, cryoEM construct;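 note: cells transiently co-transfected with the receptor construct and GloSensor cAMP biosensor, luminescence read after 30 min compound exposure at room temperature in the dark as cAMP accumulation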;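 for Normalized Luminescence Counts (N=2): normalized to the maximum response of β-PEA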
T3 construct: FLAG (N); 10xHis (N); TEV protease site (N); expressed in transfected cells; host or cells: HEK293T
T3 sequence (Q96RJ0 with tags, fused parts or gaps F112W): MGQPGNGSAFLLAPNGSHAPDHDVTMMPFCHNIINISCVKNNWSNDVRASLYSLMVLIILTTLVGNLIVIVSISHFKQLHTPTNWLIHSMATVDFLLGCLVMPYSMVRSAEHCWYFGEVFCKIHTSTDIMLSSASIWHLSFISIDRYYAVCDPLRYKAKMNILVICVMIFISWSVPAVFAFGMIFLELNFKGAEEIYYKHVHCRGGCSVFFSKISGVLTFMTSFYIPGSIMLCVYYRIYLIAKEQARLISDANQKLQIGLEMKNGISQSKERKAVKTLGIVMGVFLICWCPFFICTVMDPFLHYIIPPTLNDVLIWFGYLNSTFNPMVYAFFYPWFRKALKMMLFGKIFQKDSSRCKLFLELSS

hTA1 C96S = biological target: T4, hTA1 C96S (Homo sapiens, UniProt Q96RJ0, C96S); experiment: GloSensor cAMP accumulation assay, C96S mutant; details: log[Compound]
T4 construct: expressed in transfected cells; host or cells: HEK293T
T4 sequence (Q96RJ0 1-339 C96S): T1 sequence (Q96RJ0 1-339 C13S) with S13C, C96S

hTA1 = biological target: T5, hTA1 (Homo sapiens, UniProt Q96RJ0); experiment: GloSensor cAMP accumulation assay, concentration response, wild-type hTA1 in transfected HEK293T cells; details: for Emax: HEK-293T;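 for all read-outs here: luminescence read after 30 min compound exposure at room temperature in cells preloaded with D-Luciferin, reflecting Gs-driven cAMP rise, efficacy scaled to the maximal β-PEA response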
T5 construct: expressed in transfected cells; host or cells: HEK293T
T5 sequence (Q96RJ0 1-339): T1 sequence (Q96RJ0 1-339 C13S) with S13C

[2] = Cryo EM Construct minus WT average

**Q.** Which “ΔpEC50 values (each mutant value - WT average)” value (hTA1 C13S; C13S) does the source give for `CCc1[nH]nc(C(=O)Nc2ccc([C@H]3CNCCO3)cc2)c1C` [ralmitaront] here?
**A.** The value was -0.1563 and -0.05083.

**Q.** What about the Emax values (hTA1 C13S; C13S, Mean of fit per experiment) of the same compound?
**A.** The Emax values was 28.9629.

**Q.** And the Emax (hTA1 C13S; C13S, Mean of fit per experiment, read-out: Emax values)?
**A.** The Emax was 23.8%.

**Q.** And the Emax (hTA1 C13S; C13S, n=2, read-out: Span ± SEM (Emax normalized to β-PEA))?
**A.** The Emax was 26.4 ± 2.6%.

**Q.** What about the “C13S - Normalized Luminescence Counts (N=2)” value (hTA1 C13S; log[Compound], M = -5, single wells) of the same compound?
**A.** Its value is 24.7419 and 34.2578 and 19.4511 and 28.8102 and 35.1294 and 22.0805.

**Q.** And the Emax (hTA1 I290N; I290N, n=2, read-out: Span ± SEM (Emax normalized to β-PEA))?
**A.** Its Emax is 43.6 ± 5.35%.

**Q.** And the “cAMP accumulation response, single replicate values (source data, Supplementary Figure 5)” value (hTA1 I290N; hTA1 I290N (N=2), log[Compound], M = -5)?
**A.** The value was 44.9736 and 36.855 and 39.1073 and 50.4588.

**Q.** What about the “Emax values, Mean” value (hTA1 I290N; hTA1 I290N mutant, β-PEA set to 100, each grid row a separate experiment, 3 replicates) of the same compound?
**A.** The value was 38.2871.

**Q.** What about the Emax (hTA1 I290N; hTA1 I290N mutant, β-PEA set to 100, each grid row a separate experiment, 3 replicates, read-out: Emax values (Mean)) of the same compound?
**A.** The Emax was 49%.

**Q.** And the “ΔEmax values (each mutant value - WT average), Mean” value [1, 2]?
**A.** The value was 72.2357 and 63.0743.

**Q.** What about the “ΔpEC50 values (each mutant value - WT average), Mean” value [1, 2] of the same compound?
**A.** The value was -1.146 and -1.03.

**Q.** And the “Emax values, Mean” value ([1]; Cryo EM Construct, mean of each independent experiment (3 replicates))?
**A.** Its value is -1.146 and -1.03.

**Q.** And the “Normalized Luminescence Counts (N=2)” value ([1]; CryoEM Construct, log[Compound], M = -5, single replicates)?
**A.** Its value is 105.279 and 102.248 and 77.3142 and 99.3117.

**Q.** What about the Emax ([1]; CryoEM Construct, n=2, read-out: Span ± SEM (Emax normalized to β-PEA)) of the same compound?
**A.** Its Emax is 107 ± 3.32%.

**Q.** What about the “Normalized Luminescence Counts” value (hTA1 C96S; C96S, M = -5, single replicates (N=2)) of the same compound?
**A.** The value was 1.4045 and -2.55 and -5.186 and -2.698 and 26.3511 and -6.571.

**Q.** What about the “Normalized Luminescence Counts” value (hTA1 C96S; C96S, M = -5.522, single replicates (N=2)) of the same compound?
**A.** Its value is -3.209 and -4.527 and -5.845 and -4.6346 and 8.922 and -0.7614.

**Q.** And the “Normalized Luminescence Counts” value (hTA1 C96S; C96S, M = -6, single replicates (N=2))?
**A.** The value was -3.209 and -2.55 and -5.186 and 8.922 and 1.175 and 18.6047.

**Q.** And the “Normalized Luminescence Counts” value (hTA1 C96S; C96S, M = -6.522, single replicates (N=2))?
**A.** The value was -5.186 (2×) and -3.209 and -6.571 and -12.381 and 39.9073.

**Q.** And the “Normalized Luminescence Counts” value (hTA1 C96S; C96S, M = -7, single replicates (N=2))?
**A.** The value was -5.845 and -1.232 and -3.868 and 3.112 and -12.381 and 8.922.

**Q.** What about the “Normalized Luminescence Counts” value (hTA1 C96S; C96S, M = -7.522, single replicates (N=2)) of the same compound?
**A.** The value was -5.845 and -2.55 and -6.504 and 10.8582 (2×) and -6.571.

**Q.** And the “Normalized Luminescence Counts” value (hTA1 C96S; C96S, M = -8, single replicates (N=2))?
**A.** Its value is -1.232 and -0.5726 and -2.55 and 20.5413 and -0.7614 and 37.9707.

**Q.** What about the “Normalized Luminescence Counts” value (hTA1 C96S; C96S, M = -8.522, single replicates (N=2)) of the same compound?
**A.** Its value is -1.891 (2×) and -3.209 and -0.7614 (2×) and 14.7315.

**Q.** And the “Normalized Luminescence Counts” value (hTA1 C96S; C96S, M = -9, single replicates (N=2))?
**A.** The value was -3.209 and -0.5726 and -2.55 and 6.985 and 8.922 and 5.048.

**Q.** What about the “Normalized Luminescence Counts” value (hTA1 C96S; C96S, M = -9.522, single replicates (N=2)) of the same compound?
**A.** Its value is -3.209 and -3.868 and -1.232 and 24.4145 and 3.112 and -8.508.

**Q.** What about the “Normalized Luminescence Counts” value (hTA1 C96S; C96S, M = -10, single replicates (N=2)) of the same compound?
**A.** Its value is -3.868 and -0.5726 and -1.232 and -0.7614 and -16.2542 (2×).

**Q.** What about the “Normalized Luminescence Counts” value (hTA1 C96S; C96S, M = -10.522, single replicates (N=2)) of the same compound?
**A.** Its value is -2.55 (2×) and -1.232 and -6.571 and -22.0641 and -10.4444.

**Q.** What about the “Normalized Luminescence Counts” value (hTA1 C96S; C96S, M = -11, single replicates (N=2)) of the same compound?
**A.** The value was 0.7455 and 2.064 and -1.232 and 20.5413 and -12.381 and -10.4444.

**Q.** What about the “Normalized Luminescence Counts” value (hTA1 C96S; C96S, M = -11.522, single replicates (N=2)) of the same compound?
**A.** Its value is 0.7455 and 3.382 and 1.4045 and 16.6681.

**Q.** What about the “Normalized Luminescence Counts” value (hTA1 C96S; M = -11.522, single replicates, mutant block above C178S) of the same compound?
**A.** Its value is -0.2239 and -0.1784 and -0.4742 and 3.153 and 1.07 and 2.833.

**Q.** What about the “Normalized Luminescence Counts” value (hTA1 C96S; M = -12, single replicates, mutant block above C178S) of the same compound?
**A.** The value was -0.6336 and -0.2466 and -0.7474 and 2.192 and 1.657 and 3.26.

**Q.** What about the “Normalized Luminescence Counts” value (hTA1 C96S; M = -12.522, single replicates, mutant block above C178S) of the same compound?
**A.** The value was -0.7701 (2×) and -0.4515 and 1.764 and 0.7492 and 1.497.

**Q.** What about the Emax (hTA1) of the same compound?
**A.** Its Emax is 40.1%.

**Q.** And the Emax (hTA1; WT hTA1, β-PEA = 100, average of the two experiments, read-out: Emax values, Avg)?
**A.** The Emax was 40.1%.

**Q.** And the “Emax values, Mean” value (hTA1; WT hTA1, β-PEA = 100, each line an independent experiment, 3 replicates)?
**A.** The value was 54.4399 and 25.7884.

**Q.** And the “Emax values, Avg” value (hTA1; WT, average of the experiments, β-PEA = 100)?
**A.** Its value is 40.11.

**Q.** What about the “Emax values, Avg” value (hTA1; WT, average of the two experiments) of the same compound?
**A.** Its value is 40.11.

**Q.** And the “Emax values, Mean” value (hTA1; WT, mean of each independent experiment (3 replicates), β-PEA = 100)?
**A.** Its value is 54.4399 and 25.7884.

**Q.** What about the “Emax values, Mean” value (hTA1; WT, single experiments (3 replicates each), β-PEA = 100) of the same compound?
**A.** The value was 54.4399 and 25.7884.
